Reference: the supplement of paper PMC10307832

Tests used:
Experiment in all cases: relative viability (nuclei count vs DMSO), 5 days (fraction); higher = more cells survive
[1] = compound: C1CN(CCN1)C2=CC=C(C=C2)C3=CN4C(=C(C=N4)C5=CC=NC6=CC=CC=C56)N=C3 [DM3189]
Summary of the method: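 On vehicle-anchored 1536-well plates, lung cancer cell lines held overnight at 37 °C were pinned with five library-drug doses (not always all listed) spaced by √10. With no medium change over 5 days, they were then fixed, permeabilised and Hoechst-stained in one step and imaged at 4×. MetaXpress counted nuclei, and viability is the median across plates of treated-well over vehicle-well nuclei. Acceptance needed control CV below 25% and at least one doubling.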

[2] = compound: C1CN(CCN1)C2=CC=C(C=C2)C3=CN4C(=C(C=N4)C5=CC=NC6=CC=CC=C56)N=C3 [DM3189] + O=C(CCCCCCC(=O)Nc1ccccc1)NO [Vorinostat] (partner 1 µM)
Summary of the method: (§1)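 Relative viability is defined as nuclei in treated wells over nuclei in vehicle wells. Duplicate plates were run and medians reported. Lung cancer cell lines in 1536-well plates were dosed by pin tool one day after seeding, with one drug or with a fixed anchor-drug dose plus five library-drug doses (not always all listed) in √10 steps, and nuclei were counted after 5 days.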

[3] = compound: C1CN(CCN1)C2=CC=C(C=C2)C3=CN4C(=C(C=N4)C5=CC=NC6=CC=CC=C56)N=C3 [DM3189] + Cc1nc(Nc2ncc(C(=O)Nc3c(C)cccc3Cl)s2)cc(N2CCN(CCO)CC2)n1 [Dasatinib] (partner 0.075 µM)
Summary of the method: as §1

[4] = compound: C1CN(CCN1)C2=CC=C(C=C2)C3=CN4C(=C(C=N4)C5=CC=NC6=CC=CC=C56)N=C3 [DM3189] + CS(=O)(=O)CCNCc1ccc(-c2ccc3ncnc(Nc4ccc(OCc5cccc(F)c5)c(Cl)c4)c3c2)o1 [Lapatinib] (partner 2 µM)
Summary of the method: as §1

[5] = compound: C1CN(CCN1)C2=CC=C(C=C2)C3=CN4C(=C(C=N4)C5=CC=NC6=CC=CC=C56)N=C3 [DM3189] + CC1(C)CCC(c2ccc(Cl)cc2)=C(CN2CCN(c3ccc(C(=O)NS(=O)(=O)c4ccc(N[C@H](CCN5CCOCC5)CSc5ccccc5)c(S(=O)(=O)C(F)(F)F)c4)cc3)CC2)C1 [Navitoclax] (partner 0.5 µM)
Summary of the method: as §1

Row | Cell Line | relative viability ([1]; 0.08 µM) | relative viability ([1]; 0.253 µM) | relative viability ([1]; 0.8 µM) | relative viability ([1]; 2.53 µM) | relative viability ([2]; first compound 0.08 µM) | relative viability ([2]; first compound 0.253 µM) | relative viability ([2]; first compound 0.8 µM) | relative viability ([2]; first compound 2.53 µM) | relative viability ([3]; first compound 0.08 µM) | relative viability ([3]; first compound 0.253 µM) | relative viability ([3]; first compound 0.8 µM) | relative viability ([3]; first compound 2.53 µM) | relative viability ([4]; first compound 0.08 µM) | relative viability ([4]; first compound 0.253 µM) | relative viability ([4]; first compound 0.8 µM) | relative viability ([4]; first compound 2.53 µM) | relative viability ([5]; first compound 0.08 µM) | relative viability ([5]; first compound 0.253 µM) | relative viability ([5]; first compound 0.8 µM) | relative viability ([5]; first compound 2.53 µM)
1 | EMC-BAC-2 | 1.09 | 0.898 | 0.936 | 1.22 | 0.53 | 0.439 | 0.477 | 0.741 | 0.372 | 0.32 | 0.319 | 0.353 | 0.894 | 0.888 | 0.859 | 0.934 | 1.13 | 1.14 | 1.13 | 1.02
2 | NCI-H727 | 1.02 | 0.815 | 0.735 | 0.986 | 1.43 | 1.05 | 0.972 | 1.13 | 0.364 | 0.336 |  | 0.299 | 0.829 | 0.626 |  | 0.781 | 0.461 | 0.373 |  | 0.511
3 | LU99A | 1.05 | 0.912 |  | 0.933 | 0.492 | 0.434 |  | 0.458 | 0.748 | 0.565 |  | 0.595 | 1.02 | 0.879 |  | 0.987 | 0.828 | 0.787 |  | 0.83
4 | LK-2 | 0.687 | 0.657 | 0.633 | 0.537 | 0.292 | 0.273 | 0.213 | 0.227 | 0.294 | 0.287 | 0.221 | 0.29 | 0.613 | 0.625 | 0.458 | 0.43 | 0.72 | 0.626 | 0.483 | 0.57
5 | NCI-H322M | 1.06 | 0.907 | 0.874 | 0.707 | 0.97 | 0.874 | 0.783 | 0.791 | 0.268 | 0.251 | 0.235 | 0.218 | 0.651 | 0.633 | 0.508 | 0.603 | 1.33 | 1.25 | 1.28 | 1.52
6 | NCI-H2405 | 1.1 | 0.975 | 0.951 | 1.03 | 1.16 | 1 | 0.942 | 0.992 | 0.215 | 0.204 | 0.201 | 0.214 | 1.14 | 1.01 | 0.979 | 0.958 | 0.758 | 0.802 | 0.873 | 0.89
7 | NCI-H1563 | 1.06 | 0.958 | 1.03 | 1.12 |  |  |  |  | 0.441 | 0.381 | 0.459 | 0.483 | 1.12 | 0.872 | 0.854 | 1.27 |  |  |  | 
8 | HCC-827 | 1.02 | 1 | 0.956 | 0.983 | 1.04 | 0.821 | 0.876 | 0.681 | 0.378 | 0.276 | 0.317 | 0.378 | 0.179 | 0.161 | 0.16 | 0.192 | 0.958 | 0.942 | 0.887 | 1.02
9 | NCI-H1666 | 1.04 | 1.02 | 1.1 | 1.12 | 1.04 | 1.02 | 1.09 |  | 0.884 | 0.862 | 0.925 | 0.715 | 0.789 | 0.736 | 0.51 | 0.712 | 1.11 | 1.09 | 0.895 | 1.17
10 | NCI-H358 | 1.01 | 0.869 | 0.843 | 0.913 | 0.746 | 0.585 | 0.628 | 0.595 | 0.177 | 0.166 | 0.17 | 0.163 | 0.489 | 0.359 | 0.523 | 0.424 |  |  |  | 
11 | 201T | 0.981 | 0.981 | 0.843 | 1.04 | 1.03 | 0.899 | 0.943 | 1.12 | 0.589 | 0.543 | 0.385 | 0.557 | 1.06 | 1.03 | 0.998 | 1.03 | 1.17 | 1.21 | 1.18 | 1.23
12 | RERF-LC-KJ | 1.16 | 1.04 | 1.04 | 1.05 | 0.858 | 0.729 | 0.661 | 0.715 | 1.03 | 0.891 | 0.744 | 0.943 | 0.965 | 0.954 | 0.843 | 0.854 | 0.997 | 1.35 | 0.81 | 1.09
13 | NCI-H3122 | 0.992 | 0.901 | 0.905 | 0.975 | 0.992 | 0.74 | 0.841 | 1.11 | 0.853 | 0.639 | 0.757 | 0.708 | 0.976 | 1.02 | 0.911 | 0.878 | 0.97 | 0.968 | 0.957 | 0.824
14 | LXF-289 | 0.996 | 1.04 | 0.973 | 1.14 | 0.759 | 0.829 | 0.663 | 0.757 | 0.264 | 0.197 | 0.189 | 0.223 | 0.9 | 0.934 | 0.868 | 0.981 | 0.983 | 0.927 | 0.932 | 1.07
